Measured values published in patent US20250032488A1, “METHODS OF TREATMENT USING LOU064” (NOVARTIS AG, priority 2021, published 2025).
Read-outs that look alike come from different tables or passages of the source.

How the values were obtained:
[1] = Concentrations of LOU064 in blood, PCA study; type: in vivo, mice; settings: BALB/c, mouse, whole blood, oral, 2.5 hours after second dose, low-dose IgE sensitization, Mean ± SD (n = 5)
Procedure: LOU064 was tested in a murine PCA model. The model used BALB/c mice aged 8-10 weeks of age. For passive sensitization with hapten-specific IgE, mice under isoflurane anesthesia were given an intradermal injection of 20 μl anti-DNP IgE in saline into the right ear and 20 μl of saline into the left ear. For FccR-specific PCA, mice were given a low dose of 3 ng anti-DNP IgE. For maximal PCA mice were given a high dose of 25 ng anti-DNP IgE. LOU064 was administered p.o. in a volume of 5 ml/kg body weight. A first dose was administered 4 hours after sensitization on the evening before challenge. The next morning, 2 hours prior to hapten challenge, mice were given a second oral dose of LOU064.
Mice were challenged with hapten 2 hours after the second dose by placing them into a heated chamber. Animals were then injected i.v. with 100 μg of the hapten DNP-HSA (dinitrophenyl-human serum albumin) in 200 μl of 2% Evans blue diluted in PBS. The mice were then returned to their cage for exactly 30 minutes. Thirty minutes later, animals were then anesthetized with isoflurane and bled retro-orbitally using EDTA coated blood collection tubes for analysis of compound exposure. The mice were then sacrificed by cervical dislocation. A 6 mm punch biopsy was taken from both the left and the right ear and placed into 100 μl of formalin. The skin biopsies were incubated at 80° C. overnight to extract the dye. Twenty-four hours later 80 μl of formalin solution were transferred to a clear flat bottom 96 well plate and the optical absorption was read at 620 nm. Analysis was performed by subtracting the left ear (saline) from the right ear (IgE) to determine how much dye was released into the skin tissue of the biopsy. Statistical significance was determined by ANOVA. Spleens were removed for BTK occupancy analysis.
Analysis of blood level: Blood samples were taken as denoted and compound measurement was performed. Blood samples were spiked with a structurally similar internal standard mixed with acetonitrile (4 volumes) and centrifuged at ˜ 4000 rpm (4° C.). Supernatant was then transferred into a microtiter plate. An aliquot of each sample was injected into an LC-MS/MS system for determination of concentrations of the parent molecule.
The concentrations of LOU064 present in mouse blood, 2.5 hours after the second compound dose are shown for the low-dose IgE sensitization in Table 1.

BTK = target: T1, BTK (Mus musculus, UniProt P35991); experiment: BTK occupancy in spleen and lung, RPA study; type: in vivo, mice; settings: single dose 30 mg/kg, 3 hours after eliciting the Arthus reaction
T1 construct: each spleen was crushed and lysed in a GentleMACS; from tissue; host or cells: mouse spleen (BALB/c, C57Bl6) and lung (C57Bl6)
T1 sequence (P35991 whole entry): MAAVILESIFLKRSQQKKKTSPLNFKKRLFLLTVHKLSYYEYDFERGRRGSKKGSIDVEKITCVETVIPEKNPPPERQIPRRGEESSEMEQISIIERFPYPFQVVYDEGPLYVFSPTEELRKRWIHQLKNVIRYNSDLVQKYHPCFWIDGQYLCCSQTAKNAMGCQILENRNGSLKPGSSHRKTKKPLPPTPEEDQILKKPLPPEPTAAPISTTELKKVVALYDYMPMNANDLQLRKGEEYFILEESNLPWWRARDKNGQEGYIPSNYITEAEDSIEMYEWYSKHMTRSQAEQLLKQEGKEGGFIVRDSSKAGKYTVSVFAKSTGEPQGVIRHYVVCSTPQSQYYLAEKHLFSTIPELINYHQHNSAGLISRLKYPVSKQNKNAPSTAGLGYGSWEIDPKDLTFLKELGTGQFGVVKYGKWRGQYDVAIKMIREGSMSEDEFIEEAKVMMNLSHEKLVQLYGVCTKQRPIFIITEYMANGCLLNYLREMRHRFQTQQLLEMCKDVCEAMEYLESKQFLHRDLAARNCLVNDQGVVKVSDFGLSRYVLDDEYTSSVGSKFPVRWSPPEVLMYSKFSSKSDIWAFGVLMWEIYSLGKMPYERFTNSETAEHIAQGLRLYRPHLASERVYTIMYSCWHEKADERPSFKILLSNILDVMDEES
Procedure: For BTK occupancy in spleen, the experiment was performed as described in the PCA example. For lung BTK occupancy, lysates were prepared from complete lungs including tracheas after perfusing the organs with saline to remove blood in the same manner as for spleen (except that the lysis buffer volume was 500 μl). The lung lysates were then analyzed for free BTK in a separate ELISA. This consisted of a capture step with anti-BTK (Cell Signaling Technologies, #8547, carrier free). Then the captured BTK protein was incubated with 1 μM of covalent biotinylated BTK probe for 1 hour at room temperature. The BTK-bound biotinylated probe was detected by with a streptavidin-HRP conjugate (Cell Signaling Technologies, #3999, used at a dilution of 1:1′000) and a chemiluminescence substrate (Supersignal ELISA Pico, Thermo Scientific, #37070). The luminescence values were corrected for ELISA background reads from control samples measured in absence of BTK capture antibody for the total BTK ELISA and in absence of probe for the BTK-bound ELISA, respectively. The relative BTK occupancy was calculated as the ratio of free BTK (signal of the covalent biotinylated probe bound BTK) to total BTK for each sample: R=free BTK/total BTK. The individual Ri values were then normalized to the vehicle group and expressed as percent occupancy: (average of Ri vehicle group−Ri)/(average of Ri vehicle group)*100%.

patients with CSU = experiment: Phase 2b trial in CSU: efficacy; type: in vivo, human; settings: 25 mg b.i.d. regimen, 12 weeks
Procedure: In a Phase 2b, randomized, double-blind, placebo-controlled trial evaluating the efficacy and safety of remibrutinib over 12 weeks in patients inadequately controlled by H1-antihistamines, with at least moderately active CSU, patients received remibrutinib 10 mg q.d. (once daily), 35 mg q.d., 100 mg q.d., 10 mg b.i.d. (twice daily), 25 mg b.i.d., 100 mg b.i.d., or placebo (1:1:1:1:1:1:1 ratio).

healthy atopic subjects = settings: doses of greater than or equal to 100 mg qd, MAD, across all tests; cited from earlier work
[2] = system: FccR1 mediated basophil activation; settings: cited from earlier work
subjects with CSU = experiment: 52-week open label extension study in CSU: safety
Procedure: In a 52-week open label extension study to evaluate the long-term safety and tolerability of LOU064 in eligible subjects with CSU who participated in the Phase 2b study the dose used was 100 mg b.i.d.

[3] = 100 mg B.I.D., N = 100, interim cut off 31 Aug. 2020
[4] = ES, 100 mg b.i.d., N = 183, median 35.14 wks, listed as remibrutinib

Q: With `C=CC(=O)N(C)CCOc1c(N)ncnc1-c1cc(F)cc(NC(=O)c2ccc(C3CC3)cc2F)c1C` [LOU064, N-(3-(6-amino-5-(2-(N-methylacrylamido)ethoxy)pyrimidin-4-yl)-5-fluoro-2-methylphenyl)-4-cyclopropyl-2-fluorobenzamide] as the compound, how does the concentration at 2.5 h ([1]; 3 mg/Kg p.o.) read?
A: 7 ± 2 nM

Q: What about the concentration at 2.5 h ([1]; 10 mg/Kg p.o.) of the same compound?
A: 35 ± 14 nM

Q: And the concentration at 2.5 h ([1]; 30 mg/Kg p.o.)?
A: 111 ± 56 nM

Q: And the concentration at 2.5 h ([1]; 100 mg/Kg p.o.)?
A: 488 ± 371 nM

Q: What about the “BTK occupancy kinetic in spleen and lung compared to effect on skin swelling” value (BTK) of the same compound?
A: very similar kinetic

Q: And the “Efficacy in CSU” value (patients with CSU)?
A: particularly effective

Q: And the “Average decrease in wheal size (SPT)” value (healthy atopic subjects)?
A: 3 mm

Q: What about the “Trough level inhibition of CD63” value ([2]; MAD, 10 mg q.d., last day of dosing) of the same compound?
A: 80%

Q: And the “Inhibition of CD203c+ basophils” value ([2]; MAD, 200 mg b.i.d)?
A: 67%

Q: What about the “Inhibition of CD203c+ basophils” value ([2]; MAD, 400 mg q.d.) of the same compound?
A: 63%

Q: What about the “Inhibition of blood basophil activation measured by CD63 expression” value ([2]; MAD, daily dose greater than or equal to 50 mg, day 1-12 and several days beyond) of the same compound?
A: full inhibition

Q: And the “Trough inhibition of CD63” value ([2]; MAD, greater than or equal to 100 mg q.d., last day of dosing)?
A: greater than 97%

Q: What about the “Inhibition of CD203c+ basophil activation marker” value ([2]; SAD, 200 mg cohort, at 8h) of the same compound?
A: up to 79.4%

Q: What about the “Inhibition of basophil activation measured by CD63” value ([2]; SAD, doses of 60 mg) of the same compound?
A: > 89%

Q: What about the “Inhibition of basophil activation measured by CD63” value ([2]; SAD, higher doses, 24 h post dose) of the same compound?
A: ~100%

Q: And the Death (subjects with CSU; [3])?
A: 0 n

Q: And the “Discontinued study due to an SAE(s)” value (subjects with CSU; [3])?
A: 0 n

Q: And the “Discontinued study due to any AE(s)” value (subjects with CSU; [3])?
A: 0 n

Q: What about the “AE preferred term diarrhea” value (subjects with CSU; 100 mg b.i.d., N = 100 interim) of the same compound?
A: 4%

Q: What about the “AE preferred term dizziness” value (subjects with CSU; 100 mg b.i.d., N = 100 interim) of the same compound?
A: 3%

Q: What about the “AE preferred term gastroenteritis” value (subjects with CSU; 100 mg b.i.d., N = 100 interim) of the same compound?
A: 3%

Q: What about the “AE preferred term headache” value (subjects with CSU; 100 mg b.i.d., N = 100 interim) of the same compound?
A: 6%

Q: What about the “Bleeding events or events under SOC Blood and lymphatic system disorders” value (subjects with CSU; 100 mg b.i.d., N = 100 interim) of the same compound?
A: no bleeding events

Q: What about the “SOC Infections and infestations” value (subjects with CSU; 100 mg b.i.d., N = 100 interim) of the same compound?
A: 14%

Q: And the “SOC Skin and subcutaneous tissue disorders” value (subjects with CSU; 100 mg b.i.d., N = 100 interim)?
A: 13%

Q: What about the Safety signal (subjects with CSU; 100 subjects, median exposure 17.86 weeks) of the same compound?
A: No safety signal

Q: And the “ECG findings or QT of >500 ms” value (subjects with CSU; ES and CS, any patient)?
A: no significant ECG findings or QT of >500 ms

Q: What about the Deaths (subjects with CSU; ES, 100 mg b.i.d., N = 183) of the same compound?
A: no deaths

Q: What about the “Incidence of AESI bleeding” value (subjects with CSU; ES, 100 mg b.i.d., N = 183) of the same compound?
A: 4.4%

Q: And the “Incidence of AESI cytopenias” value (subjects with CSU; ES, 100 mg b.i.d., N = 183)?
A: 0.5%

Q: What about the “Incidence of AESI infections” value (subjects with CSU; ES, 100 mg b.i.d., N = 183) of the same compound?
A: 23%

Q: What about the “Skin and subcutaneous tissue disorders (AEs by primary system organ class)” value (subjects with CSU; ES, 100 mg b.i.d., N = 183, median 35.14 wks) of the same compound?
A: 32 n

Q: And the “Discontinued study treatment due to AE(s)” value (subjects with CSU; [4])?
A: 6 n

Q: What about the “Headache (AEs by PT)” value (subjects with CSU; [4]) of the same compound?
A: 6.6%

Q: What about the “Infections and infestations (AEs by primary system organ class)” value (subjects with CSU; [4]) of the same compound?
A: 23.0%

Q: And the “Patients with SAE(s)” value (subjects with CSU; [4])?
A: 4 n

Q: What about the “Skin and subcutaneous tissue disorders (AEs by primary system organ class)” value (subjects with CSU; [4]) of the same compound?
A: 17.5%

Q: And the “Patients with newly occurring isolated ALT>3xULN” value (subjects with CSU; ES, normalized within 4 weeks)?
A: 1 patient
